Assays:
[1] = tested on: RAW264.7; assay: Antiinflammatory activity in mouse RAW264.7 cells assessed as inhibition of LPS-induced NO production at 40 uM preincubated for 30 mins measured 24 hrs post LPS challenge by Griess method; assay type: functional
[2] = target: NAD(P)H dehydrogenase [quinone] 1 (Mus musculus) (UniProt Q64669); assay: Induction of QR1 in mouse Hepa-1c1c7 cells assessed as concentration required to double QR1 induction by MTT assay; assay type: cell-based
[3] = Inhibition of TNF-alpha activated NF-kappaB expressed in HEK293 cells by luciferase reporter gene assay; assay type: cell-based
[4] = tested on: HEK293; assay: Inhibition of TNF-alpha activated NF-kappaB expressed in HEK293 cells at 50 uM by luciferase reporter gene assay; assay type: cell-based
[5] = target: NAD(P)H dehydrogenase [quinone] 1 (Mus musculus) (UniProt Q64669); assay: Induction of QR1 in mouse Hepa-1c1c7 cells assessed as induction ratio at 50 uM by MTT assay; assay type: cell-based
[6] = target: T1, Aromatase (Homo sapiens, UniProt P11511)
T1 sequence (P11511 whole entry): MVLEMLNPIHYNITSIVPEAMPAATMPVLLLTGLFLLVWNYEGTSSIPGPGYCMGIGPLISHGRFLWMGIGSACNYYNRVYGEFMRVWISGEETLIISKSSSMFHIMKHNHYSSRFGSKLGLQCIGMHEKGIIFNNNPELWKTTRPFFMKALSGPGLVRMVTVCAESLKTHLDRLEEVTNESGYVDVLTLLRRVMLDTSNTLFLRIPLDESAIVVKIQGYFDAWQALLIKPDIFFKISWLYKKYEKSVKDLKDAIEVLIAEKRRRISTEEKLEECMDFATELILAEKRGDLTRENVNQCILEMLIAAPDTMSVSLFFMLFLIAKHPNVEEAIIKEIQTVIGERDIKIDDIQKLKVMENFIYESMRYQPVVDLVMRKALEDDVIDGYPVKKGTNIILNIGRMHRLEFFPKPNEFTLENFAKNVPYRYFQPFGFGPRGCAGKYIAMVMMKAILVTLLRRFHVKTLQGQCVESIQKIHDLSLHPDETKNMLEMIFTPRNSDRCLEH

[7] = target: T1, Aromatase; remark: listed apart in the source
[8] = tested on: MCF7; assay: cells; details: Homo sapiens
Description: Cytotoxicity against human MCF7 cells by SRB assay

[9] = target: T2, Nitric oxide synthase, inducible (Mus musculus, UniProt P29477)
T2 sequence (P29477 whole entry): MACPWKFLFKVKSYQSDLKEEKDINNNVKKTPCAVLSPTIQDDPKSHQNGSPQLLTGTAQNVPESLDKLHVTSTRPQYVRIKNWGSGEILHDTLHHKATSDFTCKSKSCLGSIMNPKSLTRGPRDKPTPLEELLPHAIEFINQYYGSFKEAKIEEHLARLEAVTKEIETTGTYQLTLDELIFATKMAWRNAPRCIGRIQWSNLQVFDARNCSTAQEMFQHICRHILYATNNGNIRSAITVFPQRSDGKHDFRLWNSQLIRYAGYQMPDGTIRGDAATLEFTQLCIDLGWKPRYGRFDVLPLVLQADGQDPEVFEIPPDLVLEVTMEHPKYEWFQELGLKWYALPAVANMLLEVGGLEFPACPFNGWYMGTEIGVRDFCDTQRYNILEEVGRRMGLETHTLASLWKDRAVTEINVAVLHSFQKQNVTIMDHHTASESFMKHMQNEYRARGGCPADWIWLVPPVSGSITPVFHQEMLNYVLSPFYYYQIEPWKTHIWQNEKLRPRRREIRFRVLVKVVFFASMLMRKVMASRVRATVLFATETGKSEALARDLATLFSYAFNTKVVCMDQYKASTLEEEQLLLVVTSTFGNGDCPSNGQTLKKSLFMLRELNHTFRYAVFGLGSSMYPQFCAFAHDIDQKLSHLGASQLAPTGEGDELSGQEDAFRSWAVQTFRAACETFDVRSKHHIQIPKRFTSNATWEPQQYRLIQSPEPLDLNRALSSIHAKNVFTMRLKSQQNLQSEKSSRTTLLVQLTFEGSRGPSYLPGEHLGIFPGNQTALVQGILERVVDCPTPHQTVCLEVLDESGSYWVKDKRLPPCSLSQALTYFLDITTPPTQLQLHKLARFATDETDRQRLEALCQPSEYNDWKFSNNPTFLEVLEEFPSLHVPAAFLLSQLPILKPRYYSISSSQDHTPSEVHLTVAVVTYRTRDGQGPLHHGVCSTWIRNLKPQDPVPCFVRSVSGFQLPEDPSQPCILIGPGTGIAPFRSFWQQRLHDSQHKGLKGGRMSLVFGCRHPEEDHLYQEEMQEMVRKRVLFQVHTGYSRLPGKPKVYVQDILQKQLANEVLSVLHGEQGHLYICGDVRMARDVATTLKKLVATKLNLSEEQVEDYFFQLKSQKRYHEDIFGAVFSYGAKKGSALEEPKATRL
Description: Inhibition of iNOS in LPS-stimulated mouse RAW264.7 cells after 18 hrs

[10] = target: T1, Aromatase; assay: Inhibition of human aromatase using dibenzylfluorescein substrate at 20 uM after 30 mins by fluorescence assay; details: 0.5 h
[11] = tested on: RAW264.7; assay: Antiinflammatory activity in mouse RAW264.7 cells assessed as inhibition of LPS-induced NO production preincubated for 30 mins measured 24 hrs post LPS challenge by Griess method; assay type: functional, cell-based

Chain of NAD(P)H dehydrogenase [quinone] 1 (Mus musculus) (Q64669 whole entry): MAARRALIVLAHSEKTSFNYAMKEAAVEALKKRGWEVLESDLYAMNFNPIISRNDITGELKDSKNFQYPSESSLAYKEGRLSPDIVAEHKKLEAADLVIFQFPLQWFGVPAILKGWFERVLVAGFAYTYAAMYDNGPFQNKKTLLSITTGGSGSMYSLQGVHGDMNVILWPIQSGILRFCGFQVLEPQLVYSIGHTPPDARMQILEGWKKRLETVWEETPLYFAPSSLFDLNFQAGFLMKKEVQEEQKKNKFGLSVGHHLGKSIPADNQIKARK

Structure (SMILES)	inhibition at 40 µM [1] [%]	CD [2] [µM]	IC50 [3] [nM]	inhibition [4] [%]	Ratio [5]	IC50 [6] [nM]	Ki [7] [nM]	IC50 [8] [nM]	IC50 [9] [nM]	inhibition (INH) [10]	IC50 [11] [nM]
Clc1ccc(-c2nc(-c3cccnc3)cs2)cc1	76.3	32	10400	54	–	–	–	–	–	–	–
COc1ccc(-c2nc(-c3cccnc3)cs2)cc1	48.3	–	–	59.9	1.1	18000	15000	–	–	–	–
Oc1ccc(/C=C/c2cc(O)cc(O)c2)cc1 [RESVERATROL]	–	–	–	–	–	–	–	87600	23200	–	–
CCOc1ccc(-c2csc(-c3ccncc3)n2)cn1	28.1	–	–	-2.4	1.1	1360	100	–	–	Active	–
Brc1cccc(-c2nc(-c3cccnc3)ns2)c1	–	0.06	–	12.9	9.2	6730	1160	–	–	–	–
Brc1ccc(-c2csc(-c3ccncc3)n2)cn1	8.6	–	–	–	1.5	2680	285	–	–	Active	–
c1cncc(-c2csc(-c3ccncc3)n2)c1	–	–	2550	68.8	–	–	–	–	–	–	–
Fc1ccc(-c2nc(-c3cccnc3)cs2)cc1	54.6	–	–	28.8	–	–	–	–	–	–	–
COc1ccc(-c2csc(-c3cccnc3)n2)cn1	16.3	–	–	–	–	–	–	–	–	–	–
COc1ccc(-c2csc(-c3ccncc3)n2)cn1	32.1	–	–	6	–	–	–	–	–	–	–
Oc1ccc(-c2nc(-c3cccnc3)cs2)cc1	35.7	–	–	52.9	0.87	11200	2550	–	–	–	–
Clc1cc(-c2nc(-c3cccnc3)cs2)ccn1	-5.2	–	–	–	–	–	–	–	–	–	–
c1ccc(-c2nc(-c3cccnc3)cs2)cc1	60.1	–	17700	50.3	1.45	900	63.4	–	–	–	–
Brc1ccc(-c2csc(-c3cccnc3)n2)cn1	22.7	20.1	–	16.4	5.1	7410	1480	–	–	Active	–
COc1cc(-c2nc(-c3cccnc3)cs2)ccn1	54.7	–	–	-4.9	0.7	23	0.65	–	–	–	47800
Brc1ccc(-c2nc(-c3cccnc3)cs2)cc1	72.5	32.8	19900	46.8	4.27	7920	1720	–	–	–	–
COc1cccc(-c2nc(-c3cccnc3)ns2)c1	–	0.08	–	22.4	–	–	–	–	–	–	–

Reference: ChEMBL document CHEMBL1955720 (Bioorg Med Chem, 2012)
